# Laboratory results: US20240293405A1, “(1H-PYRROLO[2,3-B]PYRIDIN-1-YL)PYRIMIDIN-2-YL-AMINO-PHENYL-ACRYLAMIDE INHIBITORS OF EGFR FOR USE IN THE TREATMENT OF BRAIN TUMORS” (Dana-Farber Cancer Institute, Inc., priority 2021, published 2024)
# Values joined by “and” are separate entries in the source; they are usually repeats but may differ in a detail not shown here. Equal entries are not always repeated. “Also recorded” adds a separate entry of the source. Where two headings read alike, the source gives them in different places.
# Tests used:
# [1] = CNS functional observational battery; type: in vivo; details: rat, PO up to 100 mg/kg
# [2] = tested on: orthotopic U251-EGFRvIII tumors; assay: Orthotopic U251-EGFRvIII xenograft in mice; type: in vivo, mouse
# Method: Gefitinib and erlotinib were purchased from Selleck Chemicals. Lapatinib was purchased from MedChemexpress. […] Compound 1 was synthesized by Pharmaron (Wang et al., bioRxiv, 2020.2003.2009.984500). For in vitro studies, compounds were dissolved in DMSO. For in vivo studies, Compound 1 was dissolved in 10% NMP/90% PEG300 and administered by oral gavage at 37.5 mg/kg or 75 mg/kg daily.
# Cells (100,000 cells resuspended in 1 μl PBS) were intracranially injected into the right striatum (0 mm anterior, 2 mm lateral, and 2.5 mm ventral to bregma) of 8-10 week-old ICR-SCID mice. Animals were monitored daily for development of neurological defects.
# Cells were transduced with lentiviral luciferase (HIV-Luc-zsGreen, addgene #39196). Bioluminescence signals from luciferase-expressing cells in live mice were recorded 10 minutes after intraperitoneal injection of D-luciferin (80 mg/kg) (Gold Biotechnology) with IVIS Lumina III Imaging System (PerkinElmer). The signals were analyzed with Living Image Software (PerkinElmer).
# To evaluate the in vivo activity of Compound 1 in GBM with mutant EGFR, U251-EGFRvIII GBM cells expressing luciferase was generated to facilitate monitoring drug response in vivo by bioluminescence-imaging analysis. […]
# CYP3A4 = assay: CYP 1A2, 2B6 and 3A4 induction, human hepatocytes; type: in vitro ADME
# From the text: Metabolism, inhibition and induction were not observed with other CYPs. Potential DDI interactions exist with drugs that are inhibitors of CYP3A4-T or those metabolized by CYP3A4/3A5; these DDI risks will be better defined once there are human pharmacokinetics (PK) data.
# Caco-2 cells = assay: Permeation and absorption in Caco-2 cells; type: in vitro ADME
# From the text: Further understanding of DDI risk will await definition of Phase 2 doses and exposures.
# [3] = tested on: H1975 cells (L858R/T790M); details: Wang 2020, read-out: IC50, growth inhibition; cited from earlier work
# [4] = Comparative plasma protein binding; type: in vitro ADME; details: human, monkey, dog, rat, mouse, across species, independent of concentration, read-out: plasma protein bound
# From the text: Compound 1 was highly protein bound (95.6 to 98.7%) to plasma protein across species. Binding was independent of concentration.
# [5] = tested on: NCI-H1975 cells (EGFR L858R/T790M mutation); assay: Cell viability assay, NCI-H1975 (CellTiter-Glo); type: cell-based; details: Homo sapiens; NCI-H1975, 72 hours; read-out: IC50, cell viability
# From the text: CellTier-Glo (Promega) assay kit (https://www.promega.com/resources/protocols/technical-bulletins/0/celltiter-glo-luminescentcell-viability-assay-protocol/) was used here.
# [6] = Oral rat 4-week toxicity study with toxicokinetics; type: in vivo, Sprague-Dawley rats
# Method: Compound 1 (0, 10, 30, and 100 mg/kg/day) was given orally, once daily by gavage to male and female Sprague-Dawley rats for up to 28 days. Morbidity, associated with marked body weight loss, necessitated termination of dosing in the high-dose group on Days 12/13. At this time, 5/sex in the high-dose group were taken to necropsy and 5/sex were started on recovery for the remainder of the study.
# There were no obvious sex differences or accumulation (Table 13).
# Major histological findings at the interim necropsy (100 mg/kg) included generalized lymphoid depletion, pulmonary edema/inflammation and testicular seminiferous tubule degeneration. All findings except testicular degeneration were reversible (˜14 days) in this study; the reversibility period was not long enough to assess reversibility of testicular changes. […] The STD10 was 30 mg/kg.
# NSCLC brain metastases = NSCLC brain metastases in SCID mice
# [7] = tested on: 468 human kinases and disease relevant mutant variants; assay: Kinase selectivity binding panel (468 kinases); details: 468 kinase panel, 1 μM free base
# Method: Compound 1 and Compound 2 (major metabolite) were evaluated in a panel of 468 human kinases and disease relevant mutant variants. Compound 1 and Compound 2 bound to few non-mutant kinases at <1% of control. […] While there is some variability between Compound 1 and Compound 2, it is clear that both compounds are very effective at binding to a large panel of mutant kinases. […] Binding constant to wild type EGFR was 4.9 nM.
# [8] = Cardiovascular function (telemetry); type: in vivo, dog
# Method: This arrythmia was not associated with maximum plasma concentration (Cmax) or Tmax of either parent or metabolite. No definitive link to the test article could be identified. Given the unexplained reversible arrythmia in this high-dose (100 mg/kg) telemetry dog, routine electrocardiogram (ECG) monitoring in Phase 1 is recommended.
# [9] = PC-9 SQ lung tumor xenograft in NOD.SCID mice; type: in vivo; details: mouse, plasma, PC-9 model, 4 hours post-dose, oral, read-out: plasma concentration at which anti-tumor activity was noted
# Method: Compound 1 was also evaluated in xenograft models of lung tumor cell lines harboring EGFR single and double mutations in the mouse.
structure (smiles),measurement,setting,value
"C=CC(=O)Nc1cc(Nc2nccc(-n3ccc4cccnc43)n2)c(OC)cc1N(C)CCN(C)C [Compound 1, N-(5-((4-(1H-pyrrolo[2,3-b]pyridin-1-yl)pyrimidin-2-yl)amino)-2-((2-(dimethylamino)ethyl)(methyl)amino)-4-methoxyphenyl)acrylamide]",CNS effects in functional observational battery,[1],no adverse CNS effects
same,body weight during treatment,[2]; 37.5 and 75 mg/kg PO QD,stable body weight; also recorded: no significant body weight loss
same,luminescence signals of tumors,"[2]; 37.5 and 75 mg/kg, dose-dependent",reduced the luminescence signals
same,CYP induction based on enzyme activity,CYP3A4,no CYP induction
same,permeability in Caco-2 cells,Caco-2 cells,Moderate permeability
same,substrate of efflux transporters,Caco-2 cells,not likely a transporter substrate; also recorded: not likely a substrate of efflux transporters; also recorded: not a likely substrate of efflux transporters
same,substrate of efflux transporters,Caco-2 cells; listed as Compound 11,unlikely that Compound 11 is a substrate of efflux transporters; also recorded: not a substrate
same,IC50,[3],4.39 nM
same,fraction unbound,[4],0.013 to 0.044
same,IC50,[5],34.4 nM
same,NOAEL at 28 days,"[6]; both sexes, Sprague-Dawley, in vivo, oral, 4-week Rat toxicology",10 mg/kg
same,NOEL for testicular lesions,"[6]; both, Sprague-Dawley, rat, in vivo",10 mg/kg
same,STD10,"[6]; both, Sprague-Dawley, rat, in vivo, po",30 mg/kg
same,NOEL for myocardial risk,[6]; rat,100 mg/kg
same,toxicity at 10 mg/kg,"[6]; rat, in vivo, po, 10 mg/kg",No toxicity
same,Median survival,"NSCLC brain metastases; 25 mpk, control 28.5 Days",80.5 days
same,brain metastases relative to control post-treatment,"NSCLC brain metastases; Compound 1 25-50 mg/kg, osimertinib 25 mg/kg",Reduced brain metastases
same,targeted non-mutant kinases (bound at <1% of control),[7],"MAST1, PAK4, PDGFRB and ULK3"
same,dogs with reversible ventricular conduction disturbance,"[8]; 100 mg/kg, 10 to 24 hours after dose",1 of 4
same,"QTc, blood pressure and cardiac intervals",[8]; doses up to 100 mg/kg,no QTc signals; also recorded: no adverse effects on blood pressure or cardiac intervals
same,Cmax,"[8]; plasma, dog, 100 mg/kg Compound 1 PO, M38 as metabolite, read-out: estimated single-dose Cmax",2620 ng/mL and 5.4 µM
same,concentration at 4 h,[9],1500 ng/mL and 3.1 µM
